Assay [1] has as its target T1, human Histamine H1 receptor (Homo sapiens, UniProt P35367).
T1 construct: expressed in transfected cells
Briefly: Binding affinity at the human histamine H1 receptor. As to conditions: Table 3c; read-out: hH1 Ki. The source says: (§1) Other receptors: Cell membranes expressing human dopamine D1, D2, D4 and rat D3 receptors were purchased through BioSignal, Inc. (Montreal, Canada). Binding assays using the histamine H1 receptor; dopamine receptors; and α1A, α1B, and α2 adrenergic receptors may be carried out according to the procedures described in U.S. Pat. No. 5,780,485, the disclosure of which is hereby incorporated by reference in its entirety into this application. Binding assays using the dopamine D5 receptor may be carried out according to the procedures described in U.S. Pat. No. 5,882,855, the disclosure of which is hereby incorporated by reference in its entirety into this application. Binding assays for the human α1D adrenergic receptor may be carried out according to the procedures described in U.S. Pat. No. 6,156,518, the disclosure of which is hereby incorporated by reference in its entirety into this application.

For the next assay, the target named is T2, rat MCH1 receptor (Rattus norvegicus, UniProt P97639).
T2 construct: expressed in transfected cells
Briefly: Binding affinity (Ki) at the rat MCH1 receptor. The settings on record: for Ki: Examples 38-141, read-out: Ki (nM) rMCH1; for pKi: Table 3c, read-out: rMCH1 Ki. On the procedure: For binding assays, pellets of transfected cells are suspended in ice-cold buffer (20 mM Tris.HCl, 5 mM EDTA, pH 7.4) and homogenized by sonication for 7 sec. The cell lysates are centrifuged at 200×g for 5 min at 4° C. The supernatants are then centrifuged at 40,000×g for 20 min at 4° C. The resulting pellets are washed once in the homogenization buffer and suspended in binding buffer (see methods for radioligand binding). Protein concentrations are determined by the method of Bradford (1976) using bovine serum albumin as the standard. Binding assays are usually performed immediately, however it is possible to prepare membranes in batch and store frozen in liquid nitrogen for future use.
Binding is performed at 25° C. for 1 hr. Incubations are terminated by rapid vacuum filtration over GF/C glass fiber filters, presoaked in 5% PEI using 50 mM Tris pH 7.4 containing 0.01% triton X-100 as wash buffer.
A methanolic solution of methyl (4S)-3-({[3-(4-[3-(acetylamino)phenyl]-3,6-dihydro-1(2H)pyridinyl)propyl]amino}carbonyl)-4-(3,4-difluorophenyl)-6-(methoxymethyl)-2-oxo-1,2,3,4-tetrahydro-5-pyrimidinecarboxylate was exposed to tritium gas at 1 atmosphere pressure in the presence of 5% palladium on carbon with stirring overnight to give the tritiated methyl (4S)-3-{[(3-{4-[3-(acetylamino)phenyl]-1-piperidinyl}propyl)amino]carbonyl}-4-(3,4-difluorophenyl)-6-(methoxymethyl)-2-oxo-1,2,3,4-tetrahydro-5-pyrimidinecarboxylate ((+)-isomer) After purification by reverse phase HPLC (Hypersil ODS, 4.6×100 mm, methanol:H2O:Et3N 10:90:1 to 100:0:1 in 15 min at 1.0 mL/min, with radiochemical and UV detection), this product was used as a radioligand in the MCH1 binding assays. The same procedure was carried out with H2 gas in place of ^3H2 to afford the non-radioactive version of Compound 10.

Assay [2] addresses T3, human Alpha-1a Adrenergic receptor (Homo sapiens, UniProt P35348).
T3 construct: expressed in transfected cells
T3 sequence (P35348 1-466): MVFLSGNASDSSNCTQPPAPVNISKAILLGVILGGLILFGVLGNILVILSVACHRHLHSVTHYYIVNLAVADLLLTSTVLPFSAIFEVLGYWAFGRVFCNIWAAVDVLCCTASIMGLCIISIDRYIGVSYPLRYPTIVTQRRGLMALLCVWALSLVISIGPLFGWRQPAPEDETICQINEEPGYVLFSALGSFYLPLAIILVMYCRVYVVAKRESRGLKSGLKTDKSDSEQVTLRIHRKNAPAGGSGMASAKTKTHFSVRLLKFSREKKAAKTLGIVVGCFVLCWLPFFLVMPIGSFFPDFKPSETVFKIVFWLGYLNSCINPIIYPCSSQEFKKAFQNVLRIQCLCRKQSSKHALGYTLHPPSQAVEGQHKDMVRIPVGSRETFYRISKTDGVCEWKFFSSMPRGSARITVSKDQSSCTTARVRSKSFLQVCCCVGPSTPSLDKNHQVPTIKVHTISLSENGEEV
Briefly: Binding affinity at the human alpha-1A adrenergic receptor. The settings on record: Table 3c; read-out: hAlpha-1a Ki.
Text: as §1

Assay [3] deals with T4, human Dopamine D2 receptor (Homo sapiens, UniProt P14416).
T4 construct: purchased BioSignal, Inc. (Montreal, Canada)
Briefly: Binding affinity at the human dopamine D2 receptor. The settings on record: Table 3c; read-out: hD2 Ki.
Text: as §1

pKi: −log10 of the molar value. Like-named read-outs stand apart in the source and are kept apart here.

T1 sequence (P35367 whole entry): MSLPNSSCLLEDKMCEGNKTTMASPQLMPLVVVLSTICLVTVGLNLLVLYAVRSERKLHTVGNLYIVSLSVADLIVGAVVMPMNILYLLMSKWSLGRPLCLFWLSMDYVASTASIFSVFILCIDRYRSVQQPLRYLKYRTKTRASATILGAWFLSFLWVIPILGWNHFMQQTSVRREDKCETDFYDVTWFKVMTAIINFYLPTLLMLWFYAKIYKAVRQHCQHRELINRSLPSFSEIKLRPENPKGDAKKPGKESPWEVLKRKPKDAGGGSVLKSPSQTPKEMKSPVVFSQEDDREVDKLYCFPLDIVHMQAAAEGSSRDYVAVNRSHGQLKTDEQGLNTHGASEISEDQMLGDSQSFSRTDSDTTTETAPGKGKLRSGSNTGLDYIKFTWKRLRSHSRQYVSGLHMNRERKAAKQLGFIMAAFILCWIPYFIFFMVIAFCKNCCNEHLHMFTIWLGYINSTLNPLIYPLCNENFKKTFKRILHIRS
T4 sequence (P14416 whole entry): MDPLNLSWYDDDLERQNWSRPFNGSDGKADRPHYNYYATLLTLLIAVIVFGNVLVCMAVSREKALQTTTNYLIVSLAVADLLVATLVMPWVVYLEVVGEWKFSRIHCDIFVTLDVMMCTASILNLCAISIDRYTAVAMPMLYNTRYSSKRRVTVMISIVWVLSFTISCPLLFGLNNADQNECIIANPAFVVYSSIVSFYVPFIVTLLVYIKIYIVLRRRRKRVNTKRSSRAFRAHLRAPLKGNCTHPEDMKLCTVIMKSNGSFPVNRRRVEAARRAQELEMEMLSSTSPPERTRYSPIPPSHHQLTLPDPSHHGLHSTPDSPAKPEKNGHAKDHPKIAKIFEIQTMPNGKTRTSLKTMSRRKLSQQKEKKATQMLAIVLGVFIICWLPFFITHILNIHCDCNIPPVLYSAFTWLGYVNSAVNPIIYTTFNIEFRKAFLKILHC
T2 sequence (P97639 whole entry): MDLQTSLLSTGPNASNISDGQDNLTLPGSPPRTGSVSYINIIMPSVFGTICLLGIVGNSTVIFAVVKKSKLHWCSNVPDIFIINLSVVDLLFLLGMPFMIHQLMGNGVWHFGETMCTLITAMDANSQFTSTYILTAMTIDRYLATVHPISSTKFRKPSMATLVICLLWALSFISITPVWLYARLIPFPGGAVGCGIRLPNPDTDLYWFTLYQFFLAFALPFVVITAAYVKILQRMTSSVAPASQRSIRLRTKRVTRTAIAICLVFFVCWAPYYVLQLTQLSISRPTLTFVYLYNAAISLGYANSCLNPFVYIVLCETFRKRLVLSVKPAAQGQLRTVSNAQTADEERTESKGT

In the case of `CC(C)C(=O)Nc1cccc(C2CCN(CC[C@@H](Oc3cccc([N+](=O)[O-])c3)c3ccccc3)CC2)c1` [Example 135], the pKi in assay [1] is 6.29; on rat MCH1 receptor, 7.71; in assay [2], 6.14; in assay [3], 6.61. The Ki on rat MCH1 receptor turned out to be 19.4 nM.

Regarding `CCOc1ccccc1O[C@@H](CCN1CCC(c2cccc(NC(=O)C(C)C)c2)CC1)c1ccccc1` [Example 136], the pKi was 5.01 in assay [1], 7.84 on rat MCH1 receptor, 6.21 in assay [2] and 6.08 in assay [3]. For the same molecule, the inhibition constant (Ki) on rat MCH1 receptor stood at 14.3 nM.

In the case of `CC(=O)c1ccccc1O[C@H](CCN1CCC(c2cccc(NC(=O)C(C)C)c2)CC1)c1ccccc1` [Example 120], the pKi in assay [1] is 5.16; at rat MCH1 receptor it was 7.83; in assay [2], 5.94; in assay [3], 6.50. Further, the Ki at rat MCH1 receptor was determined as 14.8 nM.

With `COCC1=C(C(=O)OC)[C@H](c2ccc(F)c(F)c2)N(C(=O)NCCCN2CCC(c3cccc(NC(=O)CC(C)C)c3)CC2)C(=O)N1` [Example 42, METHYL (4S)-4-(3,4-DIFLUOROPHENYL)-6-(METHOXYMETHYL)-3-({[3-(4-{3-[(3-METHYLBUTANOYL)AMINO]PHENYL}-1-PIPERIDINYL)PROPYL]AMINO}CARBONYL)-2-OXO-1,2,3,4-TETRAHYDRO-5-PYRIMIDINECARBOXYLATE], the negative-log Ki (pKi) in assay [1] is 5.11; on rat MCH1 receptor, 9.22; in assay [2], 7.96; in assay [3], 5.48. In addition, the Ki at rat MCH1 receptor stood at 0.6 nM.

As for `CC(=O)Nc1cccc(C2CCN(CCCNC(=O)N3C(=O)OC[C@@H]3c3cc(F)c(F)c(F)c3)CC2)c1` [Example 129], the negative-log Ki (pKi) in assay [1] is 5.19; on rat MCH1 receptor it was 7.65; in assay [2], 6.42; in assay [3], 4.38. Also, the Ki on rat MCH1 receptor came out at 22.3 nM.

`CC(C)C(=O)Nc1cccc(C2CCN(CC[C@@H](Oc3cc(F)ccc3F)c3ccccc3)CC2)c1` [Example 110]: the pKi in assay [1] was 6.55; at rat MCH1 receptor, 8.31; in assay [2], 6.73; in assay [3], 7.08. The inhibitory constant (Ki) at rat MCH1 receptor came to 4.9 nM.

Consider `COc1ccc(C(=O)CCCN2CCC(c3cccc(NC(=O)C(C)C)c3)CC2)c(OC)c1` [Example 78], for which the pKi is 5.64 in assay [1], 7.28 at rat MCH1 receptor, 6.55 in assay [2] and 5.29 in assay [3]. The inhibition constant (Ki) on rat MCH1 receptor was 52 nM.

Consider `CC(=O)Nc1cccc(C2CCN(CCCC(=O)c3ccc(Cl)cc3)CC2)c1` [Example 65], for which the pKi is 5.76 in assay [1], 7.16 on rat MCH1 receptor, 7.58 in assay [2] and 5.84 in assay [3]. Besides, the Ki at rat MCH1 receptor was found to be 69 nM.

For `CCC(=O)Nc1cccc(C2CCN(CCCNC(=O)C3=C(COC)NC(=O)N[C@@H]3c3ccc(F)c(F)c3)CC2)c1` [Example 46], the pKi in assay [1] was 5.54; at rat MCH1 receptor, 8.09; in assay [2], 5.62; in assay [3], below 4.30. Also, the inhibition constant Ki at rat MCH1 receptor amounted to 8.16 nM.

Consider `CC(C)C(=O)Nc1cccc(C2CCN(CC[C@@H](Oc3cccc(Cl)c3)c3ccccc3)CC2)c1` [Example 124], for which the pKi in assay [1] is 6.48; on rat MCH1 receptor it was 8.03; in assay [2] it was 6.69; in assay [3] it was 7.18. Further, the Ki at rat MCH1 receptor worked out at 9.3 nM.

As for `COC(=O)C1=C(C)N=C(SCc2ccc(OC)cc2)N(C(=O)NCCCN2CCC(c3cccc(NC(C)=O)c3)CC2)C1c1ccc([N+](=O)[O-])cc1` (stereo not drawn) [Example 54, METHYL 1-{[(3-{4-[3-(ACETYLAMINO)PHENYL]-1-PIPERIDINYL}PROPYL)AMINO]CARBONYL}-2-[(4-METHOXYBENZYL)SULFANYL]-4-METHYL-6-(4-NITROPHENYL)-1,6-DIHYDRO-5-PYRIMIDINECARBOXYLATE], the pKi in assay [1] was 4.94; at rat MCH1 receptor it was 7.52; in assay [2], 4.95; in assay [3], 4.64. Also, the inhibition constant Ki at rat MCH1 receptor was 29.9 nM.

For the molecule `CCCC(=O)Nc1cccc(C2CCN(CCCNC(=O)N3C(=O)NC(COC)=C(C(=O)OC)[C@@H]3c3ccc(F)c(F)c3)CC2)c1` [Example 44, METHYL (4S)-3-{[(3-{4-[3-(BUTYRYLAMINO)PHENYL]-1-PIPERIDINYL}PROPYL)AMINO]CARBONYL}-4-(3,4-DIFLUOROPHENYL)-6-(METHOXYMETHYL)-2-OXO-1,2,3,4-TETRAHYDRO-5-PYRIMIDINECARBOXYLATE], the pKi in assay [1] was 5.59; at rat MCH1 receptor, 10.05; in assay [2], 7.94; in assay [3] it was 5.44. The inhibition constant (Ki) on rat MCH1 receptor was 0.09 nM.

Regarding `CC(=O)Nc1cccc(C2CCN(CCCNC(=O)N3C(=O)OCC3Cc3ccc(F)cc3)CC2)c1` (stereo not drawn) [Example 132], the pKi in assay [1] was 4.40; on rat MCH1 receptor, 7.35; in assay [2], 4.96; in assay [3], 4.38. In addition, on rat MCH1 receptor, the Ki stood at 44.6 nM.

Turning to `CC(=O)Nc1cccc(C2CCN(CCCNC(=O)N3C(=O)OC(C)(C)C3c3ccc(F)c(F)c3)CC2)c1` (stereo not drawn) [Example 130], the pKi was 5.73 in assay [1], 7.31 at rat MCH1 receptor, 6.48 in assay [2] and 4.40 in assay [3]. Also, the inhibition constant (Ki) on rat MCH1 receptor was 48.6 nM.

As for `COCC1=C(C(=O)OC)C(c2ccc(F)c(F)c2)N(C(=O)NCCCN2CCC(c3cc(F)ccc3OC)CC2)C(=O)N1` (stereo not drawn) [Example 115], the negative logarithm of the Ki (pKi) was 7.33 in assay [1], 7.89 at rat MCH1 receptor, 7.31 in assay [2] and 6.58 in assay [3]. Moreover, the Ki on rat MCH1 receptor worked out at 12.9 nM.

For `COc1ccc(C(C)=O)cc1O[C@@H](CCN1CCC(c2cccc(NC(=O)C(C)C)c2)CC1)c1ccccc1` [Example 119], the pKi was 4.60 in assay [1], 7.65 on rat MCH1 receptor, 5.98 in assay [2] and 6.12 in assay [3]. Further, the Ki at rat MCH1 receptor was 22.4 nM.

As for `CC(C)C(=O)Nc1cccc(C2CCN(CC[C@H](Oc3ccc(Br)cc3)c3ccccc3)CC2)c1` [Example 116], the negative logarithm of the Ki (pKi) in assay [1] is 6.26; on rat MCH1 receptor, 9.03; in assay [2], 7.65; in assay [3] it was 7.28. The Ki on rat MCH1 receptor turned out to be 0.923 nM.

On to `CC(=O)Nc1cccc(C2CCN(CCCNC(=O)N3C(=O)O[C@H](C)C3c3ccc(F)c(F)c3)CC2)c1` (stereo partly drawn) [Example 131], for which the pKi in assay [1] was 5.55; on rat MCH1 receptor, 7.93; in assay [2] it was 5.61; in assay [3], 4.72. For the same molecule, the inhibition constant (Ki) on rat MCH1 receptor was 11.8 nM.

On to `CC(=O)Nc1cccc(C2CCN(CCCNC(=O)N3C(=O)OC[C@@H]3c3cc(F)cc(F)c3)CC2)c1` [Example 128], for which the pKi in assay [1] was 4.48; on rat MCH1 receptor, 7.50; in assay [2] it was 6.19; in assay [3], 4.38. In addition, at rat MCH1 receptor, the Ki amounted to 31.4 nM.

Consider `CC(=O)c1cccc(O[C@@H](CCN2CCC(c3cccc(NC(=O)C(C)C)c3)CC2)c2ccccc2)c1` [Example 141], for which the negative logarithm of the Ki (pKi) in assay [1] is 5.42; on rat MCH1 receptor it was 8.49; in assay [2], 5.52; in assay [3], 5.61. Moreover, the inhibition constant (Ki) on rat MCH1 receptor is 3.2 nM.

Take `CC(=O)Nc1cccc(C2CCN(CCCC(=O)c3ccc(C)c(C)c3)CC2)c1` [Example 57]: the negative-log Ki (pKi) in assay [1] was 6.08; at rat MCH1 receptor, 7.05; in assay [2] it was 7.31; in assay [3], 5.22. Further, at rat MCH1 receptor, the Ki was determined as 90 nM.

What is called pKi is the Ki on a negative log10 scale, so that one unit is a factor of ten. What is called Ki is a measure of affinity in units of concentration, obtained from inhibition or displacement.

The values above are taken from patent US20040038855A1 (priority 1999, published 2004).
